Measurements as given in publication PMC9633773, “Discovering cell-active BCL6 inhibitors: effectively combining biochemical HTS with multiple biophysical techniques, X-ray crystallography and cell-based assays” (Scientific Reports, 2022).
Values after ≈ are worked out from the molar mass of the structure shown. Like-named read-outs stand apart in the source and are kept apart here.

Assays:
Caco-2 efflux ratio = format: in vitro ADME; conditions: human
Trx-6His-BCL6 BTB = target: T1, Trx-6His-BCL6 BTB (Homo sapiens, UniProt P41182); experiment: TR-FRET assay, Trx-6His-BCL6 BTB / BCOR-A633 peptide; format: biochemical
T1 construct: made in house; host or cells: E. coli BL21-AI
Procedure: Each 15 µL TR-FRET reaction in 384-well black Proxiplate (Perkin Elmer) contained 1 or 10 nM Trx-6His-BCL6 BTB, 300 nM BCOR-A633 and 0.5 or 1 nM anti-6His-Terbium cryptate (Perkin Elmer), in the FP assay buffer (25 mM Hepes pH 8, 100 mM NaCl, 0.05% (v/v) Tween20, 0.5 mM TCEP), supplemented with 0.05% (w/v) bovine serum albumin. Test compounds in DMSO or DMSO alone were added to the wells using and Echo 550 acoustic dispenser to give the appropriate test concentration in 0.7% v/v DMSO final. After a 2 h incubation at room temperature, the plates were read on an Envision plate reader or a Pherastar FSX plate reader with 337 nm laser excitation, a first emission filter at 665 nm and a second emission filter at 615 or 620 nm. Data were normalised and IC50 determined as described above for the FP assay.

[1] = PAMPA passive permeability; format: in vitro ADME; design: PAMPA pH7.4: unit not given here; conditions: pH 7.4
Procedure: Passive diffusion permeability was measured using a parallel artificial membrane permeability assay (PAMPA). The assay used an artificial membrane consisting of 2% (v/v) phosphatidyl choline in dodecane (Sigma Aldrich, Dorset, UK). The donor plate was a MultiScreen-IP Plate with a 0.45 µm hydrophobe Immobilon-P membrane (Millipore, UK) and the acceptor plate was a MultiScreen 96-well transport receiver plate (Millipore, UK). The permeability of test compound (10 µM) was measured at pH 7.4 in buffer containing 1% (w/v) Bovine Serum Albumin (Sigma Aldrich, Dorset, UK) following a 16 h incubation at 30 °C. After transfer and centrifugation, sample supernatants were diluted and analysed using a Waters (Milford, MA, US) TQ-S LC-MS/MS system. Permeability values (cm/s) were calculated using the following equation, where VD and VA are the volumes of donor and acceptor, respectively, and area is the surface area of the membrane x porosity: Papp=C x ln1-Drugacceptor/Drugequilibrium,whereC=VDxVA/VD+VAx area x time

HPLC aqueous solubility = format: physicochemical; conditions: aqueous buffer, kinetic from dmso stock; PBS buffer pH 7.4, 1% DMSO, maximum targeted concentration 100 µM; read-out: HPLC Sol.
Procedure: Solubility measurements by quantitative ^1H-NMR or HPLC method were performed as described previously.

[2] = target: T2, full-length BCL6/SMRT protein–protein interaction in HEK293T cells (Homo sapiens, UniProt P41182); experiment: NanoBRET cellular assay; format: cell-based
T2 construct: DNA encoding full length BCL6 and SMRT was inserted into pFC32K NanoLuc and pFC14K HaloTag vectors; expressed in transfected cells; host or cells: HEK293T

[3] = target: T3, ePL-tagged BCL6 BTB in HEK293T cells (Homo sapiens, UniProt P41182); experiment: InCELL Hunter cellular target engagement assay; format: cell-based
T3 construct: BCL6 BTB domain (HDSD51 plasmid construct encoding amino-acids 14–135) fused to a C-terminal ePL tag; expressed in transfected cells; host or cells: HEK293T
Procedure: BCL6 cellular target engagement assays were established using the InCELL Hunter™ Target Engagement Kit from DiscoverX-Eurofin. For the assay, the expressed protein comprised the N-terminal truncated region of BCL6 BTB domain (HDSD51 plasmid construct encoding amino-acids 14–135) fused to a C-terminal ePL tag (enhanced ProLabel, DiscoverX). Constructs were transfected over 24 h in HEK293T cells using Lipofectamine 3000 (ThermoFisher Scientific) and 2.5 × 10^5 transfected cells / well in phenol red-free OptiMEM medium (ThermoFisher Scientific) were re-plated in 384 assay plates before treating with compounds for 6 h. To complete the assay, cells were incubated for 30 min at room temperature with the InCell Hunter assay reagents mix following the manufacturer’s instructions, before reading the chemiluminescent signal on an Envision (Perkin Elmer) plate reader.

Row | efflux ratio (Caco-2 efflux ratio) | IC50 (Trx-6His-BCL6 BTB; 1 or 10 nM Trx-6His-BCL6 BTB, read-out: TR-FRET IC50) | Papp at 16 h, 10 µM ([1]; PAMPA, read-out: PAMPA passive cell permeability) | solubility kinetic (HPLC aqueous solubility) | IC50 ([2]; BCL6.NanoLuc/SMRT.HaloTag configuration, HEK293T, 6 h, geometric mean n=3–4, read-out: Nano BRET Geo Mean IC50) | NanoBRET inhibition, HaloTag.BCL6/NanoLuc.SMRT combination ([2]; BCL6 N-terminally fused to HaloTag) | IC50 ([2]; Figure 7B, C-terminally NanoLuc tagged BCL6 / SMRT.HaloTag, read-out: NanoBRET IC50, BCL6.NanoLuc) | IC50 (Trx-6His-BCL6 BTB; 1 nM BCL6 BTB domain, geometric mean n=3–5, read-out: TR-FRET Geo Mean IC50) | PAMPA pH7.4 [1] | EC50 ([3]; Figure 6B, ePL-tagged BCL6 BTB 14–135, 6 h, n=3, read-out: InCELL Hunter EC50) | EC50 ([3]; Table S3, C-terminally ePL-tagged BCL6 BTB 14-135, 6 hours, read-out: InCELL Geomean EC50) | Structure (SMILES)
1 | 0.72 | 2.1 ± 0.1 µM | 110 ×10⁻⁶ cm/s |  |  |  |  |  |  |  |  | CC(C)OC(=O)c1cc(Nc2ccc3c(c2)CC(=O)N3C)n2nccc2n1 [Compound 25, isopropyl 7-((1-methyl-2-oxoindolin-5-yl)amino)pyrazolo[1,5-a]pyrimidine-5-carboxylate]
2 |  |  |  | 80 µM (≈ 35.4 µg/mL) | 2.93 µM | only very weak inhibition | 3 µM | 0.5 µM | 19 | 24 ± 9 µM | 23.7 µM | CNC(=O)c1cc(Nc2ccc3c(c2)n(CCC(C)(C)O)c(=O)n3C)c(C#N)c(Cl)n1 [Compound 27]
